The source of these data is patent US20240010652A1, “COMPOSITIONS AND METHODS FOR TREATING KIT- AND PDGFRA-MEDIATED DISEASES” (Blueprint Medicines Corporation, priority 2020, published 2024).

Where a name gives a salt, the structure may show the parent alone. A value given as a limit tells only on which side of the number the result lay.

The target of one data set is KIT D816V (Homo sapiens, UniProt P10721, D816V). Put plainly: KIT (D816V) mutant biochemical enzymatic activity inhibition assay (EZReader 2 mobility shift) at APPKM for ATP. The settings on record: 0.3 nM enzyme, 20 μM ATP (APPKM), 1 μM Src tide, 25° C., 60 minutes; read-out: Kit D816V @ ATP Km IC50. An excerpt:
PDGFRα and KIT enzymatic activity was monitored using the Perkin Elmer electrophoretic mobility shift technology platform, the EZReader 2.
Within the linear, steady-state phase of the kinase enzymatic reaction, the mixed pool of phosphorylated (product) and non-phosphorylated (substrate) peptides was passed through the microfluidic system of the PerkinElmer EZ Reader 2, under an applied electric potential difference. The presence of the phosphate group on the product peptide provided a difference in mass and charge between that of the substrate peptide, resulting in a separation of the substrate and product pools in the sample (Perrin et al., Expert Opin Drug Discovery 2010, Jan. 5(1):51-63).
As the product and substrate peptide mixture passes the lasers within the instrument, these pools are detected (λex=488 nm, λem=568 nm) and resolved as separate peaks. The ratio between these peaks reflects the activity of the compound at that concentration, in that well, under those conditions.
All test articles were dissolved in 100% DMSO at a stock concentration of 10 mM. A 100×, 10-point, 4-fold serial dilution of all test compounds was created in 100% DMSO, starting at a relevant concentration, usually 1 mM. A volume of 130 nL of each concentration was transferred to the relevant well of a 384-well assay plate (Greiner 781 201) using a TTPLabtech Mosquito nano-liter dispenser. Using the Multidrop, the remaining constituents of the reaction were then added to the 130 nL of compound as follows:
The reaction was stopped by the addition of 70 μl of Stop buffer (100 mM HEPES pH 7.5, 0.015% Brij 35, 35 mM EDTA and 0.2% of Coating Reagent 3, Caliper Lifesciences). The plate was read on a Caliper EZReader 2. For biochemical D816V and D842V activity, the following designations are used: ≤0.30 nM=A; ≥0.31 and <1.4 nM=B; ≥1.4 nM=C; and ND=not determined.

Data set [1] is described as follows: Brain penetration in rats: brain to plasma ratio (Kp,brain). The class given is in vivo. Particulars: rat; Sprague-Dawley rats (3/compound), IV infusion 1 mg/kg/hr over 8 hours, plasma and brain homogenate at 24 hours, Cbrain/Cplasma, mean. An excerpt:
To understand the brain penetration, brain to plasma ratios of the compounds were obtained in Sprague-Dawley (SD) rats. In vivo equilibrium distribution between blood and brain in preclinical species such as rats is a commonly used parameter to evaluate brain penetration. Kp,brain is the ratio of concentrations in brain and blood (Cbrain/Cplasma). The compound's passive diffusion characteristics, its affinity for membrane transporters at the blood-brain barrier (BBB), and the relative drug binding affinity differences between the plasma proteins and brain tissue influence the Kp,brain. Compounds with Kp,brain smaller than 0.1 have restricted access to the CNS, whereas compounds with Kp,brain greater than 0.3-0.5 are considered to have good brain penetration and compounds with Kp,brain greater than 1 freely cross the BBB (Expert Opin. Drug Delivery (2016) 13 (01): 85-92).
The brain penetration of the compounds disclosed herein was measured in Sprague-Dawley rats (3/compound). The animals received IV infusion of 1 mg/kg/hr of the compound over 8 hours via jugular vein cannulation. At 24 hours, blood was collected via tail vein bleeding or cardiac puncture (under anesthesia) and centrifuged to obtain plasma samples. Brain tissues were collected and homogenized with phosphate-buffered saline (PBS). […]

Data set [2] can be described thus: Unbound brain to plasma ratio (Kpuu,brain), from brain and plasma concentrations and equilibrium dialysis unbound fractions. The class given is in vivo, Sprague-Dawley rats. Particulars: Sprague-Dawley, brain homogenate / plasma (unbound), intravenous, 1 mg/kg/hr; rat; calculated from brain and plasma concentrations and fu,brain (brain homogenate equilibrium dialysis), mean. On the procedure:
The brain penetration of the compounds disclosed herein was measured in Sprague-Dawley rats (3/compound). The animals received IV infusion of 1 mg/kg/hr of the compound over 8 hours via jugular vein cannulation. At 24 hours, blood was collected via tail vein bleeding or cardiac puncture (under anesthesia) and centrifuged to obtain plasma samples. Brain tissues were collected and homogenized with phosphate-buffered saline (PBS). The concentrations of the compounds were obtained in the plasma and brain homogenates by LC-MS/MS analysis.
Rat plasma protein binding of the tested compounds were evaluated in vitro using an equilibrium dialysis method. The tested compounds were assessed in 100% plasma in a dialysis block for 5 hours at 37° C. Samples from the donor and receiver sides were analyzed by LC-MS/MS. Plasma protein bound and unbound fractions were calculated using the following equations— […]
where: [Donor]5h is measured donor concentration at 5-hour; [Received]5h is measured receiver concentration at 5-hour; fb* is bound fraction determined from plasma; fu,p* is calculated unbound fraction for plasma. […]
Similarly, rat brain protein binding of the tested compounds was also evaluated in vitro using equilibrium dialysis method. […] of the compound was assessed in brain homogenate in a dialysis block for 5 hours at 37° C. Samples from the donor and receiver sides were analyzed by LC-MS/MS. […]

Chain of KIT D816V (P10721 26-976 D816V): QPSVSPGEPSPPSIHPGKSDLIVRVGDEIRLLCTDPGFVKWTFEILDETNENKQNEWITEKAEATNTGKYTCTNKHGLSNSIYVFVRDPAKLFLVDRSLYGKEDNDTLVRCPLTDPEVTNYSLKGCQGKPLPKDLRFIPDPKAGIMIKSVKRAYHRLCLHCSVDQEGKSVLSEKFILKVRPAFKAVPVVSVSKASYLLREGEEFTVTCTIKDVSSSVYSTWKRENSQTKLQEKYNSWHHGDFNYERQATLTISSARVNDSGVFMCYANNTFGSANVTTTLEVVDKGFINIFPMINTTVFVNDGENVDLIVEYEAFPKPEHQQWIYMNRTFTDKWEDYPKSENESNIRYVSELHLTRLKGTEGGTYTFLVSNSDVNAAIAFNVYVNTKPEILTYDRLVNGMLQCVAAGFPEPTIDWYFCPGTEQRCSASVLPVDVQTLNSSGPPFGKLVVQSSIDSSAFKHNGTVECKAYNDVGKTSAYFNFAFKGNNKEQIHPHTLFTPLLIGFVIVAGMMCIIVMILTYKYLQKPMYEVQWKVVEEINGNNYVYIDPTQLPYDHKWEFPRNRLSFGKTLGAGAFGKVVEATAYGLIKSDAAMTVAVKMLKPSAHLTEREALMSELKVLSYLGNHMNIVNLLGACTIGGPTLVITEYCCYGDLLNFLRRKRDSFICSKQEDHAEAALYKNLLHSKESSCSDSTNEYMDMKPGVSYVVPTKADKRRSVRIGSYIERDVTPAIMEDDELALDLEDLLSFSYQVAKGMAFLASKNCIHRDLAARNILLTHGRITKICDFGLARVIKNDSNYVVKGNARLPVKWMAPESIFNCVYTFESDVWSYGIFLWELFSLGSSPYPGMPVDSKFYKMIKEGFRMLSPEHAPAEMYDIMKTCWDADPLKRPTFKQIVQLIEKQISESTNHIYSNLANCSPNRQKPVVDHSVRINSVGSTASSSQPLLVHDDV

Usually IC50 stands for the concentration at which inhibition is half-maximal. As a reminder, the Kp is tissue or fluid exposure divided by exposure in the circulation. Turning to `C[C@](N)(c1ccc(F)cc1)c1cnc(C2=CCN(c3ncnn4cc(-c5cnn(CCO)c5)cc34)CC2)nc1` [Compound 1, (S)-2-(4-(4-(4-(5-(1-amino-1-(4-fluorophenyl)ethyl)pyrimidin-2-yl)-3,6-dihydropyridin-1(2H)-yl)pyrrolo[2,1-f][1,2,4]triazin-6-yl)-1H-pyrazol-1-yl)ethan-1-ol], the concentration for half-maximal inhibition (IC50) at KIT D816V lay in the range of 0.31 to 1.4 nM. The Kp at 24 h in data set [1] was 0.133. In addition, the Kp uu at 24 h in data set [2] is 0.017. For `C[C@](N)(c1ccc(F)cc1)c1cnc(N2CCN(c3ncnc4[nH]c(-c5cnn(CCO)c5)cc34)CC2)nc1.Cl` [Compound 2, (S)-2-(4-(4-(4-(5-(1-amino-1-(4-fluorophenyl)ethyl)pyrimidin-2-yl)piperazin-1-yl)-7H-pyrrolo[2,3-d]pyrimidin-6-yl)-1H-pyrazol-1-yl)ethan-1-ol hydrochloride] the same measures were at most 0.3 nM, 0.045 and 0.01. For the molecule `C[C@](N)(c1ccc(F)cc1)c1cnc(N2CCN(c3ncnc4[nH]c(-c5cnn(C6COC6)c5)cc34)CC2)nc1` [Compound 3, (S)-1-(4-fluorophenyl)-1-(2-(4-(6-(1-(oxetan-3-yl)-1H-pyrazol-4-yl)-7H-pyrrolo[2,3-d]pyrimidin-4-yl)piperazin-1-yl)pyrimidin-5-yl)ethan-1-amine], the concentration for half-maximal inhibition (IC50) on KIT D816V was at most 0.3 nM. On to `C[C@@H](O)Cn1cc(-c2cc3c(N4CCN(c5ncc([C@@](C)(N)c6ccc(F)cc6)cn5)CC4)ncnc3[nH]2)cn1` [Compound 4, (R)-1-(4-(4-(4-(5-((S)-1-amino-1-(4-fluorophenyl)ethyl)pyrimidin-2-yl)piperazin-1-yl)-7H-pyrrolo[2,3-d]pyrimidin-6-yl)-1H-pyrazol-1-yl)propan-2-ol], for which the IC50 on KIT D816V was 0.31 to 1.4 nM. Still for that read-out and setting: the figure for `C[C@H](O)Cn1cc(-c2cc3c(N4CCN(c5ncc([C@@](C)(N)c6ccc(F)cc6)cn5)CC4)ncnc3[nH]2)cn1` [Compound 5, (S)-1-(4-(4-(4-(5-((S)-1-amino-1-(4-fluorophenyl)ethyl)pyrimidin-2-yl)piperazin-1-yl)-7H-pyrrolo[2,3-d]pyrimidin-6-yl)-1H-pyrazol-1-yl)propan-2-ol hydrochloride] is 0.31 to 1.4 nM. In the case of `C[C@](N)(c1ccc(F)cc1)c1cnc(N2CCN(c3ncnc4[nH]c(-c5cnn(CC6COC6)c5)cc34)CC2)nc1` [Compound 6, (S)-1-(4-fluorophenyl)-1-(2-(4-(6-(1-(oxetan-3-ylmethyl)-1H-pyrazol-4-yl)-7H-pyrrolo[2,3-d]pyrimidin-4-yl)piperazin-1-yl)pyrimidin-5-yl)ethan-1-amine hydrochloride], the IC50 on KIT D816V was 0.31 to 1.4 nM.
